The source of these data is paper PMC7214178, “Ligand‐specific recycling profiles determine distinct potential for chronic analgesic tolerance of delta‐opioid receptor (DOPr) agonists” (Journal of Cellular and Molecular Medicine, 2020).

Test [1] deals with rat model of streptozotocin (STZ)‐induced diabetic neuropathy. The test can be described thus: Chronic (homologous) analgesic tolerance over six daily i.t. injections at ED80, with or without ECE2 inhibitor 6634449. It is filed as in vivo. To be noted: for Anti‐allodynic response over 6‐day treatment: six consecutive i.t. injections at ED80, 24‐hour intervals, daily AUC, seven rats/group. The protocol:
Type I diabetes was induced by systemic injection of streptozotocin (STZ, 65 mg/kg, i.p.) according to a standardized methodology, which allows development of persistent diabetic neuropathy after the first week of treatment. ^20 At the end of the first week, blood was extracted from the tail vein and blood glucose levels were measured with a glucometer (Accu‐Chek Aviva; Roche Diagnostics) prior to evaluation of analgesia on the second week.
Mechanical allodynia is the consequence of maladaptive neuroplasticity following nerve damage. ^24 In a model of diabetic neuropathy as the one used in this study, hyperglycaemia contributes to generate reactive oxygen species which induce microglia activation and inflammatory mediators. ^25 , ^26 These mediators attenuate the activity of Gly/GABA interneurons in superficial layers ^24 , ^27 , ^28 , ^29 and disrupt the inhibitory control that prevents innocuous touch stimuli from producing pain which leads to allodynia. ^30 DOPrs are expressed in these light‐touch mechanoreceptors ^31 and up‐regulated during sensitization, ^32 , ^33 making DOPr agonists elective for relieving this type of pain. Allodynia was evaluated using Von Frey filaments as previously described. ^19 Briefly, rats were accustomed for 15 min on a metal mesh floor under an inverted plastic box (20 × 10 × 10 cm) in a quiet room dedicated to this behavioural test. After habituation, the plantar surface of the right and left hind legs was alternately touched (6‐8 seconds) with von Frey filaments of progressively wider diameter in order to find the threshold of pressure required to produce withdrawal. The mechanical threshold response was obtained by consigning the pressure in grams that would result in withdrawal of the paw in 50% of 10 trials. A normal rat responds to tactile pressures of 12‐15 g whereas neuropathic rats respond to pressures of 4‐6 g. ^24
To evaluate homologous tolerance, each agonist was injected i.t. once daily for six consecutive days, at ED80 derived from dose‐response curves (deltorphin‐IIED80: 0.30 nmol/30 μL; TIPPED80: 0.40 nmol/30 μL; SB235863ED80: 1.7 nmol/30 μL and SNC‐80ED80: 0.55 nmol/30 μL). Immediately after drug administration, mechanical allodynia was measured every 15 minutes until the analgesic response disappeared. […] Prior to starting any pharmacological treatment, the presence of allodynia was confirmed. Treatments and measures were carried out randomly by two different experimenters to ensure blinding to treatment for the person assessing allodynia. In a series of experiments, an inhibitor of endothelin‐converting enzyme 2 (ECE2), 6634449, was administered by i.t injection (3 nmol/30 μL) 20 minutes prior to administration of DOPr ligands from 2 to 7 days. The vehicle (4% DMSO diluted in CSF sterile) was given as control. The dose of 6634449 used in this study was based on results previously published. ^25
Figure 1 Experimental design. One week after STZ administration, repeated treatments with DOPr agonists were started. Before starting chronic treatment with ED80 of deltorphin II, TIPP, SB235863 or SNC‐80, animals were tested to establish the baseline allodynia. Immediately after, they were injected with deltorphin II at a dose corresponding to ED50, which was repeated at the end of treatment. Allodynia measures were taken every 15 min after each injection until analgesic effects disappeared. Chronic tolerance was evaluated by comparing analgesic response to successive i.t. injections of each agonist between days 2 and 6. Difference in analgesic response to deltorphin II ED50 in days 1 and 8 allowed to establish tolerance induced by the different agonists to this common probe

For the next test, the system named is Flag‐DOPr. The test can be described thus: DOPr recycling after recovery from agonist‐induced internalization in primary cortical neuron cultures. It is filed as cell-based, Murine. To be noted: for Surface labelling after recovery / Intracellular immunoreactivity after 60 min recovery vs immediately after treatment: 10 µmol/L; for Surface labelling after recovery / Effect of ECE2 inhibitor 6634449 on redistribution of internalized receptors during recovery: 60 min; for Surface labelling after recovery: then 60 min recovery, non‐permeabilized neurons; for Intracellular immunoreactivity after 60 min recovery vs immediately after treatment: then 60 min recovery in absence of ligand, permeabilized neurons; for Effect of ECE2 inhibitor 6634449 on redistribution of internalized receptors during recovery: agonist 10 µmol/L, 6634449 20 μmol/L during 60 min recovery. The protocol: Primary neuronal cultures were prepared from rat post‐natal prefrontal cortex (P0‐P2) as previously described. ^19 Briefly, three cultures were independently prepared from 8 to 12 pups each. Pups were cryo‐anaesthetized, and brains were removed and transferred into ice‐cold dissociation solution (NaS0_4 90 mmol/L; K2SO4 30 mmol/L; MgCl2 5.8 mmol/L; CaCl20.25 mmol/L; HEPES 10 mmol/L; glucose 20 mmol/L; pH 7.4). Following dissection, the frontal cortex was digested in papain solution (20 U/mL; 40 minutes at 37°C), and the product passed through Pasteur pipettes of progressively decreasing diameter for mechanical dissociation. The suspension obtained was centrifuged, and cells were then resuspended and diluted to a density of 2.5 million/mL, before plating onto glass coverslips pre‐coated with collagen/poly l‐lysine (each at 0.1 mg/mL). Culture proceeded in supplemented Neurocell medium (B27 4%; 100 U/mL penicillin‐streptomycin; GlutaMAX 2%; FBS 10%) for 24 hours. Coverslips were then transferred to a six‐well plate containing 2 mL of Neurocell medium/well and transfected with Flag‐DOPr (8 µg/well), using a calcium phosphate transfection protocol previously. ^19 Murine DORs tagged with the Flag epitope at the N terminus were a generous gift from Dr M. von Zastrow (University of California at San Francisco, San Francisco, CA).
Immunolabelling of surface receptors for quantification of trafficking was performed as previously described. ^19 Briefly, primary cultures expressing Flag‐DOPrs were incubated at 37°C with Neurocell medium containing Ca^2+‐dependent mouse anti‐Flag M1 antibody (1:100; Sigma). After 30 minutes incubation with the antibody, vehicle (0.05% DMSO in Neurocell) or agonist (TIPP, deltorphin II; SNC‐80; SB235863; 10 μmol/L) was added to the medium for 60 minutes. At the end of this period, cultured neurons were washed at 37°C once in calcium‐free PBS and then in PBS in order to remove treatment agonist as well as antibody bound to receptors that may have remained at the membrane after agonist exposure. For visualization of internalized receptors, cultures were immediately fixed with 4% PFA, permeabilized with PBS/0.1% Triton (20 minutes at room temperature (RT)), blocked with PBS/BSA 1% (10 minutes at RT) and incubated with secondary antimouse Alexa 488‐conjugated donkey antibody (1:1000; Invitrogen, A21202). Alternatively, cultured neurons were allowed to recover for 60 minutes in the absence of ligand before a second round of calcium‐free PBS wash was completed before fixation, permeabilization and incubation with secondary antibody. The latter procedure allowed to remove antibody bound to Flag‐DOPrs that translocated to the surface during recovery ensuring the exclusive labelling of receptors that were retained intracellularly. ^26 Another set of neurons was similarly treated with agonist or vehicle and then allowed to recover for 60 minutes following which they were fixed and incubated with secondary antibody without permeabilization, so as to exclusively reveal Flag‐DOPrs that reappeared at the surface during recovery from internalization; measures of surface labelling were normalized to intracellular labelling produced during internalization. Recycling was thus established by taking two independent measures: (a) cytoplasmic labelling density lost during recovery from treatment and (b) gain in surface labelling density when neurons were allowed to recover from agonist‐induced internalization. In experiments in which 6634449 was introduced in the medium during recovery, the concentration used was 20 μmol/L.
Cytoplasmic and surface labelling densities were quantified with ImageJ using a previously described method, ^27 with small modifications. ^16 In particular, total cytoplasmic labelling density was obtained by measuring fluorescence intensity within the region confined between the external and nuclear perimeters, and dividing this value by the corresponding area. […]

With `CCC(C)COC(=O)c1[nH]c2c(c1C)CC1C3Cc4ccc(OC)c5c4C1(CCN3C)C2O5.Cl` (stereo not drawn) [SB235863, [8R‐(4bS*,8aα,8aβ,12bβ)]7,10‐dimethyl‐1‐methoxy‐11‐(2‐ethylpropyl)oxycarbonyl 5,6,7,8,12,12b‐hexahydro‐(9H)‐4,8‐methanobenzofuro[3,2‐e]pyrrolo[2,3‐g]isoquinoline hydrochloride], in test [1], the “Anti‐allodynic response over 6‐day treatment” value is reported as “practically abolished”. Besides, in the test on Flag‐DOPr, the “Surface labelling after recovery” value was “less”, the “Intracellular immunoreactivity after 60 min recovery vs immediately after treatment” value is “not different from the one observed immediately after the end of treatment” and the “Effect of ECE2 inhibitor 6634449 on redistribution of internalized receptors during recovery” value is reported as “without effect”.

Turning to deltorphin II, in test [1] (6634449 3 nmol/30 μL (0.1 mmol/L) i.t. 20 min before each daily i.t. agonist injection at ED80, five rats/group), the “Analgesic t 1/2 (95% CI), rats pre‐treated with ECE2 inhibitor 6634449” value was “ill‐defined”. Also, the “Tolerance / analgesia with 6634449 pre‐treatment compared with vehicle controls” value in test [1] (6634449 0.1 mmol/L i.t. 20 min before each agonist injection at ED80, five rats/group) is given as “significantly shorter”. In addition, in test [1] (6634449 i.t. 20 min before each daily agonist injection at ED80), the “Day by which analgesic effects were reduced in animals exposed to 6634449” value was 4 days. The “Anti‐allodynic response over 6‐day treatment” value in test [1] is reported as “maintained its analgesic response”. The “Analgesic t 1/2 (95% CI), rats pre‐treated with vehicle” value in test [1] (vehicle i.t. 20 min before each daily i.t. agonist injection at ED80, five rats/group) was “no measurable decay t 1/2”. Also, in the test with Flag‐DOPr, the “Intracellular immunoreactivity after 60 min recovery vs immediately after treatment” value is “significantly reduced” and the “Effect of ECE2 inhibitor 6634449 on redistribution of internalized receptors during recovery” value is “remain trapped in the cytosol”.

On to `C=CCN1C[C@H](C)N([C@H](c2ccc(C(=O)N(CC)CC)cc2)c2cccc(OC)c2)C[C@H]1C` [SNC‐80, (+)‐4‐[(αR)‐α‐((2S,5R)‐4‐allyl‐2,5‐dimethyl‐1‐piperazinyl)‐3‐methoxybenzyl]‐N,N‐diethylbenzamide], for which, in test [1], the “Anti‐allodynic response over 6‐day treatment” value is reported as “gradually decreased”. Further, in the test with Flag‐DOPr, the “Surface labelling after recovery” value is reported as “less”, the “Intracellular immunoreactivity after 60 min recovery vs immediately after treatment” value is listed as “not different from the one observed immediately after the end of treatment” and the “Effect of ECE2 inhibitor 6634449 on redistribution of internalized receptors during recovery” value is reported as “without effect”.
